Literature values as cited in patent US20260315605A1, “PROTACS FOR ASK1 PROTEIN DEGRADATION: PREPARATION AND USE THEREOF” (COUNCIL OF SCIENTIFIC AND INDUSTRIAL RESEARCH, priority 2023, published 2026).

Experiments:
NASH patients = conditions: Phase III, Harrison et al. 2020
ASK1/MAPK pathway = conditions: Harrison et al. 2020

Cc1cc(F)c(C(=O)Nc2cccc(-c3nncn3C(C)C)n2)cc1-n1cnc(C2CC2)c1 [selonsertib]
clinical outcome, fibrosis improvement (NASH patients): failed in Phase III clinical trial of fibrosis improvement in NASH patients
anti-fibrotic activity (ASK1/MAPK pathway): promising anti-fibrotic activity
